Drawing on patent publication US9193731B2, “Antimicrobial compounds and methods of making and using the same” (Melinta Therapeutics, Inc., priority 2009, dated 2015), this text covers MIC for 59 molecules.

Counter-ions that a name gives are not always drawn. Like-named read-outs stand apart in the source and are kept apart here.

In the assay the test system is Escherichia coli strain ATCC25922. The experiment in a line: standard microdilution assay to determine minimum inhibitory concentrations (MICs). The assay is classed as cell-based. Particulars: Escherichia coli. As to the method: Minimum inhibitory concentrations (MICs) are determined by the microdilution method, typically in a final volume of 100 microliters, according to protocols outlined by The Clinical and Laboratory Standards Institute [CLSI; formerly the National Committee for Clinical Laboratory Standards (NCCLS)]. See CLSI: Methods for dilution antimicrobial susceptibility tests for bacteria that grow aerobically; approved standard-fifth edition. Wayne, Pa.: NCCLS; 2000. The assays can be also be performed in microtiter trays according to conventional methodologies as published by the CLSI. See CLSI. Methods for Dilution Antimicrobial Susceptibility Tests for Bacteria That Grow Aerobically; Approved Standard—Seventh Edition. CLSI Document M7-A7 [ISBN 1-56238-587-9] CLSI, 940 West Valley Road, Suite 1400, Wayne Pa. 19087-1898 USA, 2006).
The compounds of the present invention were tested for antimicrobial activity. The compounds were run against Escherichia coli strain ATCC25922 using a standard microdilution assay to determine minimum inhibitory concentrations (MICs). […] A “N/A” means that data is unavailable. It will be recognized by one skilled in the art that the compounds can be assessed against other bacterial organisms and that the presentation of data for activity against Escherichia coli is illustrative and in no way is intended to limit the scope of the present invention. The compounds of the present invention can be assayed against a range of other microorganisms depending upon the performance activity desired to be gathered. Furthermore, the “+”, “−”, and “N/A” representation and the selection of a cutoff value of 16 micrograms/ml is also illustrative and in no way is intended to limit the scope of the present invention.

The mark [1] stands for this setting: ATCC25922, Escherichia coli strain ATCC25922, microdilution, read-out: E. coli ATCC25922 MIC.
The mark [2] stands for this setting: ATCC25922, read-out: E. coli ATCC25922 MIC.

Consider `Cc1cc(F)cc(CN(C2CCNCC2)S(=O)(=O)c2ccc(-c3cc4cn(-c5ccc(CN(CCCN)CCCN)cc5)c(=O)nc4[nH]3)cc2)c1` [Compound 237], for which the MIC – broadly, the lowest concentration that inhibits growth of the organism – under setting [1] is under 16 µg/mL.

For the molecule `O=C(NC1CCNCC1)c1ccc(-c2cc3cn(-c4ccc(CNCc5c[nH]nn5)cc4)c(=O)nc3[nH]2)cc1` [Compound 240], under setting [1], the MIC is over 16 µg/mL.

As for `CN(CCCNCc1ccc(-n2cc3cc(-c4ccc(C(=O)NC5CCNCC5)cc4)[nH]c3nc2=O)cc1)C(=N)N` [Compound 241], under setting [1], the minimal inhibitory concentration (MIC) is under 16 µg/mL.

For the molecule `NCc1ccc(-n2cc3cc(-c4ccc(S(=O)(=O)NC5CCNCC5)c(Cl)c4)[nH]c3nc2=O)cc1` [Compound 245], the MIC under setting [1] is over 16 µg/mL.

As to `O=c1nc2[nH]c(-c3ccc(S(=O)(=O)NC4CCNCC4)cc3F)cc2cn1-c1ccc(CNCCCCl)cc1` [Compound 250], the MIC under setting [1] is over 16 µg/mL.

With `O=C(NC1CCNCC1)c1ccc(-c2cc3cn(-c4ccc(CNCCCCl)cc4)c(=O)nc3[nH]2)c(F)c1` [Compound 253], under setting [1], the MIC is over 16 µg/mL.

Take `O=C(NC1CCNCC1)c1ccc(-c2cc3cn(-c4ccc(CNCCCCl)cc4)c(=O)nc3[nH]2)cc1F` [Compound 254]: the MIC under setting [1] was over 16 µg/mL.

`NCc1ccc(-n2cc3cc(-c4cc(F)c(C(=O)NC5CCNCC5)c(F)c4)[nH]c3nc2=O)cc1` [Compound 258]: the MIC under setting [1] was under 16 µg/mL.

With `O=c1nc2[nH]c(-c3ccc(S(=O)(=O)NC4CCNCC4)c(Cl)c3)cc2cn1-c1ccc(CNCCCF)cc1` [Compound 261], the MIC under setting [1] is over 16 µg/mL.

`O=C(NC1CCNCC1)c1c(F)cc(-c2cc3cn(-c4ccc(CNCCCF)cc4)c(=O)nc3[nH]2)cc1F` [Compound 262]: the MIC under setting [1] is over 16 µg/mL.

For `NC1CCN(Cc2ccc(-n3cc4cc(-c5ccc(S(=O)(=O)NC6CCNCC6)cc5F)[nH]c4nc3=O)cc2)CC1` [Compound 263], the MIC under setting [1] was under 16 µg/mL.

Take `NC1CCN(Cc2ccc(-n3cc4cc(-c5ccc(S(=O)(=O)N6CCN7CCC6CC7)c(F)c5)[nH]c4nc3=O)cc2)CC1` [Compound 264]: the MIC under setting [1] is over 16 µg/mL.

Turning to `NCc1ccc(-n2cc3cc(-c4ccc(S(=O)(=O)NC5CCNCC5)c(Cl)c4)[nH]c3nc2=O)cc1F` [Compound 272], the MIC under setting [1] is over 16 µg/mL.

Regarding `O=c1nc2[nH]c(-c3ccc(S(=O)(=O)NC4CCNCC4)cc3F)cc2cn1-c1ccc(CNCCCF)c(F)c1` [Compound 279], the MIC under setting [1] is over 16 µg/mL.

For `O=C(NC1CCNCC1)c1ccc(-c2cc3cn(-c4ccc(CNCCCF)c(F)c4)c(=O)nc3[nH]2)c(F)c1` [Compound 280], under setting [1], the MIC was over 16 µg/mL.

Consider `NCCCNCc1ccc(-n2cc3cc(-c4ccccc4Cl)[nH]c3nc2=O)cc1` [Compound 288], for which, under setting [1], the MIC is over 16 µg/mL.

Regarding `NCCCNCc1ccc(-n2cc3cc(CN4CCOC4=O)[nH]c3nc2=O)cc1` [Compound 289], the MIC under setting [1] is over 16 µg/mL.

`NCCCNCc1ccc(-n2cc3cc(-c4ccccc4C(F)(F)F)[nH]c3nc2=O)cc1` [Compound 292]: the MIC under setting [1] was over 16 µg/mL.

In the case of `CC(C)NC(=O)CCc1cc2cn(-c3ccc(CNCCCN)cc3)c(=O)nc2[nH]1` [Compound 293], the MIC under setting [1] was over 16 µg/mL.

As for `NCCCNCc1ccc(-n2cc3cc(-c4ccc(OC(F)(F)F)cc4)[nH]c3nc2=O)cc1` [Compound 296], under setting [1], the MIC is over 16 µg/mL.

For the molecule `NCCCNCc1ccc(-n2cc3cc(CCC(=O)N4CC[C@H](F)C4)[nH]c3nc2=O)cc1` [Compound 298], under setting [1], the MIC is over 16 µg/mL.

In the case of `NCCCNCc1ccc(-n2cc3cc(-c4cc(F)c(F)c(F)c4)[nH]c3nc2=O)cc1` [Compound 306], under setting [1], the MIC was over 16 µg/mL.

As to `NCCCNCc1ccc(-n2cc3cc(-c4ccccc4OC(F)(F)F)[nH]c3nc2=O)cc1` [Compound 309], under setting [1], the MIC was over 16 µg/mL.

Turning to `NCCCNCc1ccc(-n2cc3cc(-c4cc(F)c(F)cc4F)[nH]c3nc2=O)cc1` [Compound 310], under setting [1], the MIC is over 16 µg/mL.

Take `NCCCN(CCCN)Cc1ccc(-n2cc3cc(-c4ccccc4C(F)(F)F)[nH]c3nc2=O)cc1F` [Compound 318]: the MIC under setting [1] is over 16 µg/mL.

In the case of `NCCCNCc1ccc(-n2cc3c(nc2=O)[nH]c2ccccc23)cc1` [Compound 335], the MIC under setting [1] is over 16 µg/mL.

On to `NCCCNCc1ccc(-n2cc3cc[nH]c3nc2=O)cc1` [Compound 498], for which the MIC under setting [1] is over 16 µg/mL.

With `NCCCNCc1ccc(-c2cn3cc(-c4ccc(F)cc4)[nH]c3nc2=O)cc1` [Compound 506], under setting [1], the MIC was over 16 µg/mL.

`NCCCCCN1CC=C(n2cc3cc(-c4ccc(C(=O)NC5CCNCC5)cc4)[nH]c3nc2=O)CC1` [Compound 507]: under setting [1], the MIC was under 16 µg/mL.

On to `NCCCCCN1CC=C(n2cc3cc(-c4ccc(F)cc4)[nH]c3nc2=O)CC1` [Compound 508], for which the MIC under setting [1] is over 16 µg/mL.

Regarding `NCCCCN1CC=C(n2cc3cc(-c4ccc(F)cc4)[nH]c3nc2=O)CC1` [Compound 511], the MIC under setting [1] was over 16 µg/mL.

For `NCCCCN1CCC(n2cc3c(nc2=O)[nH]c2ccccc23)C1` (centres unmarked) [Compound 542], the MIC under setting [1] is over 16 µg/mL.

As for `NCCCCN1CCC(n2cc3cc(-c4ccc(F)cc4)[nH]c3nc2=O)C1` (centres unmarked) [Compound 559], under setting [1], the MIC is over 16 µg/mL.

For `NCCCCCN1CCC(n2cc3cc(-c4ccc(F)cc4)[nH]c3nc2=O)C1` (centres unmarked) [Compound 560], under setting [1], the MIC was over 16 µg/mL.

As for `O=c1nc2[nH]c(-c3ccc(F)cc3)cc2cn1C1CCNC1` (centres unmarked) [Compound 561], the MIC under setting [1] is over 16 µg/mL.

In the case of `N=C(N)NCCCCN1CCC(n2cc3c(nc2=O)[nH]c2ccccc23)C1` (centres unmarked) [Compound 562, N-{4-[3-(2-oxo-2,9-dihydro-1,3,9-triaza-fluoren-3-yl)-pyrrolidine-1-yl]-butyl}-guanidine], the MIC under setting [1] is over 16 µg/mL.

For `NCCCNCc1ccc(-c2cn3cc[nH]c3nc2=O)cc1` [Compound 563, 6-{4-[(3-Amino-propylamino)-methyl]-phenyl}-1H-imidazo[1,2-a]pyrimidin-7-one], the MIC under setting [1] was over 16 µg/mL.

As to `N=C(N)NCCCNCc1ccc(-c2cn3cc[nH]c3nc2=O)cc1` [Compound 564, N-{3-[4-(7-Oxo-1,7-dihydro-imidazo[1,2-a]pyrimidin-6-yl)-benzylamino]-propyl}-guanidine], the MIC under setting [1] was under 16 µg/mL.

For `CCCCN1CC=C(c2cn3cc(-c4ccc(F)cc4)[nH]c3nc2=O)CC1` [Compound 565], the MIC under setting [1] was over 16 µg/mL.

As for `N=C(N)NCCCN1CC=C(c2cn3cc(-c4ccc(F)cc4)[nH]c3nc2=O)CC1` [Compound 566], under setting [1], the MIC was over 16 µg/mL.

Regarding `NCCCN1CCC(c2cn3cc(-c4ccc(F)cc4)[nH]c3nc2=O)CC1` [Compound 567], the MIC under setting [1] was over 16 µg/mL.

As to `NCCCN1CC=C(c2cn3cc[nH]c3nc2=O)CC1` [Compound 571], under setting [1], the MIC is over 16 µg/mL.

As to `N=C(N)NCCCN1CC=C(c2cn3cc[nH]c3nc2=O)CC1` [Compound 572], under setting [1], the minimum inhibitory concentration (MIC) was over 16 µg/mL.

On to `Cn1cc2cc(-c3ccc(F)cc3)[nH]c2nc1=O` [Compound 580], for which the MIC under setting [1] was over 16 µg/mL.

As for `Cn1cc2cc(-c3ccc(C(=O)NC4CCNCC4)cc3)[nH]c2nc1=O` [Compound 581], under setting [1], the MIC was over 16 µg/mL.

As to `NCCCN1CC=C(c2cn3c(nc2=O)[nH]c2ccccc23)CC1` [Compound 587], under setting [1], the MIC was over 16 µg/mL.

Consider `NCCCCN1CC(n2cc3c(nc2=O)[nH]c2ccccc23)C1` [Compound 590], for which, under setting [1], the MIC is over 16 µg/mL.

As for `O=c1nc2[nH]c3ccccc3c2cn1C1CNC1` [Compound 591], the MIC under setting [1] was over 16 µg/mL.

On to `O=c1nc2[nH]c3ccccc3c2cn1C1CCNC1` (centres unmarked) [Compound 597], for which, under setting [1], the MIC is over 16 µg/mL.

`NCCCCN1CCC(n2cc3c(nc2=O)[nH]c2ccccc23)CC1` [Compound 600]: the MIC under setting [1] was over 16 µg/mL.

With `NCCCNCc1ccc(-c2cn3c(nc2=O)[nH]c2ccccc23)cc1` [Compound 601, 3-{4-[(3-Amino-propylamino)-methyl]-phenyl}-10H-benzo[4,5]imidazo[1,2-a]pyrimidin-2-one hydrochloride salt], the MIC under setting [2] is over 16 µg/mL.

On to `N=C(N)NCCCNCc1ccc(-c2cn3c(nc2=O)[nH]c2ccccc23)cc1` [Compound 602, N-{3-[4-(2-Oxo-2,10-dihydro-benzo[4,5]imidazo[1,2-a]pyrimidin-3-yl)-benzylamino]-propyl}-guanidine hydrochloride salt], for which the MIC under setting [2] is under 16 µg/mL.

`NCCCNCc1ccc(-n2cc3cc(CCC4CCCCC4)[nH]c3nc2=O)cc1` [Compound 609]: the MIC under setting [1] was over 16 µg/mL.

`COCc1cc2cn(-c3ccc(CNCCCN)cc3)c(=O)nc2[nH]1` [Compound 610]: under setting [1], the MIC is over 16 µg/mL.

Regarding `NCCCNCc1ccc(-n2cc3cc(-c4ccc(C(F)(F)F)cc4)[nH]c3nc2=O)cc1` [Compound 611], the MIC under setting [1] is over 16 µg/mL.

For the molecule `NCCCNCc1ccc(-n2cc3cc(-c4ccsc4)[nH]c3nc2=O)cc1` [Compound 612], under setting [1], the MIC was over 16 µg/mL.

Turning to `NCCCNCc1ccc(-n2cc3cc(CN4CCS(=O)(=O)CC4)[nH]c3nc2=O)cc1` [Compound 613], under setting [1], the minimum inhibitory concentration (MIC) is over 16 µg/mL.

Turning to `NCCCNCc1ccc(-c2cn3cc(-c4ccc(Br)cc4)[nH]c3nc2=O)cc1` [Compound 617, 6-{4-[(3-Amino-propylamino)-methyl]-phenyl}-2-(4-bromo-phenyl)-1H-imidazo[1,2-a]pyrimidin-7-one], the MIC under setting [1] is over 16 µg/mL.

Take `N=C(N)NCCCNCc1ccc(-c2cn3cc(-c4ccc(Br)cc4)[nH]c3nc2=O)cc1` [Compound 618]: the MIC under setting [1] is over 16 µg/mL.
